In patent publication US20260132129A1 (Genesis Therapeutics, Inc., priority 2022, published 2026):

Biological target: T1, PI3Kα H1047R (T47D cells) (Homo sapiens, UniProt P42336, H1047R)
T1 construct: endogenous in cells; host or cells: T47D cells
Experiment: PI3Kα cellular assay: pAKT HTRF in T47D cells after EGF stimulation
Format: cell-based
Conditions: for IC50: T47D cells (PI3Kα H1047R), pAKT S473 HTRF, EGF stimulation
Summary of the method: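 T47D cells (PIK3CA H1047R) serum-starved 16 h, then treated 1 h at 37 °C with compound (10,000 nM top, 3-fold steps to 0.5 nM). After 10 min stimulation with 20 ng/mL EGF, cells were lysed and pAKT measured by HTRF.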

T1 sequence (P42336 whole entry H1047R): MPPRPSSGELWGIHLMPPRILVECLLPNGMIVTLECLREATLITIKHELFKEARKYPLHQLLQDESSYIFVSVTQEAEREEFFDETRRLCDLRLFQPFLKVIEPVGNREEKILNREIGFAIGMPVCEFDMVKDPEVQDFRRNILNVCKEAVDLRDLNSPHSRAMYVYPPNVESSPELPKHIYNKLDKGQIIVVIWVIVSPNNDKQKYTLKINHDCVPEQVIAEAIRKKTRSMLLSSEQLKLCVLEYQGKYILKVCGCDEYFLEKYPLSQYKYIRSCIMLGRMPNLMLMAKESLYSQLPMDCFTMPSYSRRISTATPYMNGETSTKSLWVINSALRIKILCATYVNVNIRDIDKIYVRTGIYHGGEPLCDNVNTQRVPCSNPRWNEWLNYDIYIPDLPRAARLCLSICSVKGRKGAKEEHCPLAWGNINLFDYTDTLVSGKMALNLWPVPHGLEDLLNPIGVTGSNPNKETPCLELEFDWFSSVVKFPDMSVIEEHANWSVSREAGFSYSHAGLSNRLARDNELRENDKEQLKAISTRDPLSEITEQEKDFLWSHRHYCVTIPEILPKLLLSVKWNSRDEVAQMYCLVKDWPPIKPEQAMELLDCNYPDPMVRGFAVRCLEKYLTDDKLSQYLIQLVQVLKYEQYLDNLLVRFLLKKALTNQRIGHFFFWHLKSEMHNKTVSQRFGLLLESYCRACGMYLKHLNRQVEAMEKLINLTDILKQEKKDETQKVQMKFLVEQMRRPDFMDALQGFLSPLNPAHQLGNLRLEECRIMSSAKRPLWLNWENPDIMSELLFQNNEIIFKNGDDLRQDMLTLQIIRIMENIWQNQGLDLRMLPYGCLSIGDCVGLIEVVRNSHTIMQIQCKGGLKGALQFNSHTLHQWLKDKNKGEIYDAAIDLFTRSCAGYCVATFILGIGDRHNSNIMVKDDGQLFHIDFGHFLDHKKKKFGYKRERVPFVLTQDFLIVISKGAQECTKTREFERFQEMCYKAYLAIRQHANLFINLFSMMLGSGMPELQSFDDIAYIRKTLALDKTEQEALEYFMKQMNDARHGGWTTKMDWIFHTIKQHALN
T1 sequence (P27986 whole entry partner): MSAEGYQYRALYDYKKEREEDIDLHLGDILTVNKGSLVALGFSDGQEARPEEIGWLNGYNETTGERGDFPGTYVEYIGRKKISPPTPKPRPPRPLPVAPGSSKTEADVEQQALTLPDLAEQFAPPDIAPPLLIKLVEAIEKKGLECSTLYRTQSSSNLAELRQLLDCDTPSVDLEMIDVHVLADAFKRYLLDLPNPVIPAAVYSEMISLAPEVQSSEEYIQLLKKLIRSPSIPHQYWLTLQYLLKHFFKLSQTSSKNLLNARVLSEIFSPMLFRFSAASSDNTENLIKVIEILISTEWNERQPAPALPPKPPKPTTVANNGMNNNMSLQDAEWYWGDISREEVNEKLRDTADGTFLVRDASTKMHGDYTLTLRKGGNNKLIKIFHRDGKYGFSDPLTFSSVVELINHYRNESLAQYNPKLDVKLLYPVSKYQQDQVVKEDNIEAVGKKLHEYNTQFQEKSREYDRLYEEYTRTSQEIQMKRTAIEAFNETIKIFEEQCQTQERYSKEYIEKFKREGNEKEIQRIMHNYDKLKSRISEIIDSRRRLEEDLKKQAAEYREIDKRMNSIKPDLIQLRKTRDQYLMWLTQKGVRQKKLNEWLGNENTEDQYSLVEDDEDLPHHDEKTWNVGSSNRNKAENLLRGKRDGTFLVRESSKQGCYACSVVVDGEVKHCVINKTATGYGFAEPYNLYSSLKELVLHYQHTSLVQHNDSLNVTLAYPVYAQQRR

| Structure (SMILES) | IC50 [µM] | T47D pAKT S473 HTRF IC50 (H1047R): T47D (H1047R) selectivity over SKBR3 (WT) |
| --- | --- | --- |
| Cc1cc([C@@H](C)Nc2ccccc2S(N)(=O)=O)c2nc(-c3ccnc(C4CC4)c3)c(C)c(=O)n2c1 [Compound 1095] | > 2 | C (C denotes ≤5-fold) |
| Cc1cc(C(C)Nc2ccccc2S(N)(=O)=O)c2nc(-c3ccnc(C4CC4)c3)c(C)c(=O)n2c1 (centres unmarked) [Compound 1096] | < 0.1 | A (A denotes >20-fold) |
| Cc1cc([C@@H](C)Nc2ccccc2S(N)(=O)=O)c2nc(-c3cccc(C(F)F)c3)c(C)c(=O)n2c1 [Compound 1097] | < 0.1 | A (A denotes >20-fold) |
| Cc1cc([C@H](C)Nc2ccccc2S(N)(=O)=O)c2nc(-c3cccc(C(F)F)c3)c(C)c(=O)n2c1 [Compound 1098] | > 2 | C (C denotes ≤5-fold) |
| Cc1cc(C(C)Nc2ccccc2C(=O)O)c2nc(-c3cc(C)nc(Cl)c3)c(C)c(=O)n2c1 (centres unmarked) [Compound 1099] | < 0.1 | A (A denotes >20-fold) |
| COc1cc(-c2nc3c([C@@H](C)Nc4ccccc4C(=O)O)cc(C)cn3c(=O)c2C)ccn1 [Compound 1101] | < 0.1 | A (A denotes >20-fold) |
| Cc1cc(C(C)Nc2ccccc2C(=O)O)c2nc(-c3cc(F)cc(C#N)c3)c(C)c(=O)n2c1 (centres unmarked) [Compound 1103] | < 0.1 | A (A denotes >20-fold) |
| Cc1cc([C@@H](C)Nc2ccccc2S(N)(=O)=O)c2nc(-c3cccnc3)c(C)c(=O)n2c1 [Compound 1107] | < 0.1 | A (A denotes >20-fold) |
| Cc1cc([C@H](C)Nc2ccccc2S(N)(=O)=O)c2nc(-c3cccnc3)c(C)c(=O)n2c1 [Compound 1108] | 0.5 to 2 | B (B denotes 20-fold≥value>5-fold) |
| Cc1cc([C@@H](C)Nc2ccccc2C(=O)O)c2nc(-c3ccc(C4CC4)nc3)cc(=O)n2c1 [Compound 1111] | < 0.1 | A (A denotes >20-fold) |
| Cc1cc([C@H](C)Nc2ccccc2C(=O)O)c2nc(C3C=NC(C4CC4)=CC3)cc(=O)n2c1 (some centres unmarked) [Compound 1112] |  | B (B denotes 20-fold≥value>5-fold) |
| Cc1cc([C@@H](C)Nc2ccccc2C(=O)O)c2nc(-c3cccc(C(F)F)c3)cc(=O)n2c1 [Compound 1113] | > 2 | C (C denotes ≤5-fold) |
| Cc1cc([C@H](C)Nc2ccccc2C(=O)O)c2nc(-c3cccc(C(F)F)c3)cc(=O)n2c1 [Compound 1114] | < 0.1 | A (A denotes >20-fold) |
| CCc1c(-c2ccc(F)cc2)nc2c([C@@H](C)Nc3ccccc3C(=O)O)cc(C)cn2c1=O [Compound 1115] | < 0.1 | A (A denotes >20-fold) |
| CCc1c(-c2ccc(F)cc2)nc2c([C@H](C)Nc3ccccc3C(=O)O)cc(C)cn2c1=O [Compound 1116] | 0.5 to 2 | B (B denotes 20-fold≥value>5-fold) |
| Cc1cc(C(C)Nc2ccccc2C#N)c2nc(-c3ccccc3)c(C)c(=O)n2c1 (centres unmarked) [Compound 1117] |  | B (B denotes 20-fold≥value>5-fold) |
| C=CC(=O)Nc1ccc(C(=O)O)c(N[C@H](C)c2cc(C)cn3c(=O)c(C)c(N4Cc5ccccc5C4)nc23)c1 [Compound 1121] | > 2 | C (C denotes ≤5-fold) |
